Laboratory results reported in patent US10047050B2, “3,4-di-substituted pyridine compound, methods of using and compositions comprising the same” (ARDEA BIOSCIENCES, INC., priority 2011, dated 2018).
Values joined by “and” are separate entries in the source; they are usually repeats but may differ in a detail not shown here. Equal values may be shown once.

System: serum uric acid
Experiment: Single-dose Phase I clinical trial, serum uric acid (sUA) 0-72 hours post-dose
Assay type: in vivo, human
Details: for % sUA change (from baseline) / % sUA reduction (from baseline): individual subjects 3-8; for % sUA change (from baseline), Mean (3-8) / Absolute sUA concentration, Mean (3-8) / % sUA reduction (from baseline), Mean (3-8): mean of subjects 3-8
Procedure: A Phase 1, Randomized, Double-Blind, Placebo-Controlled Study to Evaluate Safety, Tolerability, Pharmacokinetics and Preliminary Food Effect of Single Doses of a URAT1 Inhibitor, in Healthy Adult Male Volunteers.
To assess safety, tolerability, pharmacokinetics and uricosuric effects after oral administration as single doses of a tablet formulation and the effect of food on bioavailability.
Subjects receive a single, oral dose of active or placebo, at the following doses:
Group 4: 20 mg (fasted) [sentinel dosing];
48 subjects in 6 dose groups, 8 subjects/group, are randomized 3:1 to receive active (6/group) or placebo (2/group). All study procedures are the same regardless of whether subject receives active or placebo. The total duration of subject participation, including screening period, is ˜2-4 weeks, and the total volume of blood collected from each subject during the entire study <500 mL, (less than typically collected during a volunteer blood donation).
5 mg and 20 mg, active and placebo, tablets packaged in 35 count HDPE bottles, stored at controlled room temperature (15-30° C.). Placebo tablets are designed to match the active tablets—identical size, form, taste, and color, and containing the same excipients. 2 mg was dosed as an oral solution.
Subjects dosed on the morning of Day 1 with ˜240 mL of room temp water.
Fasted: subjects are dosed after overnight fast >10 hours and remain fasted until >4 hours post-dose.
Fed: subjects fast overnight for >10 hours, then are dosed 30 mins after completing standard moderate fat breakfast (no high fructose corn syrup).
Serum samples are collected at:
PD samples are frozen (−20° C.) and stored; all samples from a given subject assayed in a single analytical run.

[1] = Group 1, 2 mg single oral dose, fasted, 0 h (baseline)
[2] = Group 1, 2 mg single oral dose, fasted, 6 h post-dose
[3] = Group 1, 2 mg single oral dose, fasted, 12 h post-dose
[4] = Group 1, 2 mg single oral dose, fasted, 24 h post-dose
[5] = Group 1, 2 mg single oral dose, fasted, 30 h post-dose
[6] = Group 1, 2 mg single oral dose, fasted, 36 h post-dose
[7] = Group 1, 2 mg single oral dose, fasted, 48 h post-dose
[8] = Group 1, 2 mg single oral dose, fasted, 54 h post-dose
[9] = Group 1, 2 mg single oral dose, fasted, 60 h post-dose
[10] = Group 1, 2 mg single oral dose, fasted, 72 h post-dose
[11] = Group 2, 5 mg single oral dose, fasted, 0 h (baseline)
[12] = Group 2, 5 mg single oral dose, fasted, 6 h post-dose
[13] = Group 2, 5 mg single oral dose, fasted, 12 h post-dose
[14] = Group 2, 5 mg single oral dose, fasted, 24 h post-dose
[15] = Group 2, 5 mg single oral dose, fasted, 30 h post-dose
[16] = Group 2, 5 mg single oral dose, fasted, 36 h post-dose
[17] = Group 2, 5 mg single oral dose, fasted, 48 h post-dose
[18] = Group 2, 5 mg single oral dose, fasted, 54 h post-dose
[19] = Group 2, 5 mg single oral dose, fasted, 60 h post-dose
[20] = Group 2, 5 mg single oral dose, fasted, 72 h post-dose
[21] = Group 3, 5 mg single oral dose, fed, 0 h (baseline)
[22] = Group 3, 5 mg single oral dose, fed, 6 h post-dose
[23] = Group 3, 5 mg single oral dose, fed, 12 h post-dose
[24] = Group 3, 5 mg single oral dose, fed, 24 h post-dose
[25] = Group 3, 5 mg single oral dose, fed, 30 h post-dose
[26] = Group 3, 5 mg single oral dose, fed, 36 h post-dose
[27] = Group 3, 5 mg single oral dose, fed, 48 h post-dose

CC(C)(Sc1ccncc1-c1ccc(C#N)c2ccccc12)C(=O)O [2-((3-(4-cyanonaphthalen-1-yl)pyridin-4-yl)thio)-2-methylpropanoic acid]
% sUA change (from baseline) [1]: 0% | % sUA change (from baseline), Mean (3-8) [1]: 0% | Absolute sUA concentration, Mean (3-8) [1]: 6.5 mg/dL | % sUA change (from baseline) [2]: −30.4% and −47.5% and −35.5% and −37.8% and −38.2% and −33.3% | % sUA change (from baseline), Mean (3-8) [2]: −10.2% | Absolute sUA concentration, Mean (3-8) [2]: 5.8 mg/dL | % sUA change (from baseline) [3]: −44.6% (2×) and −52.5% and −48.4% and −43.4% and −42.3% | % sUA change (from baseline), Mean (3-8) [3]: −15.6% | Absolute sUA concentration, Mean (3-8) [3]: 5.5 mg/dL | % sUA change (from baseline) [4]: −41.1% and −44.1% and −43.5% and −40.5% and −43.4% and −46.2% | % sUA change (from baseline), Mean (3-8) [4]: −8.1% | Absolute sUA concentration, Mean (3-8) [4]: 6.0 mg/dL | % sUA change (from baseline) [5]: −46.4% and −52.5% and −43.5% and −44.6% and −44.7% and −52.6% | % sUA change (from baseline), Mean (3-8) [5]: −13.5% | Absolute sUA concentration, Mean (3-8) [5]: 5.6 mg/dL | % sUA change (from baseline) [6]: −48.2% and −52.5% and −45.2% and −45.9% and −46.1% and −52.6% | % sUA change (from baseline), Mean (3-8) [6]: −18.8% | Absolute sUA concentration, Mean (3-8) [6]: 5.3 mg/dL | % sUA change (from baseline) [7]: −32.1% and −42.4% and −38.7% and −36.5% and −35.5% and −48.7% | % sUA change (from baseline), Mean (3-8) [7]: −13.3% | Absolute sUA concentration, Mean (3-8) [7]: 5.6 mg/dL | % sUA change (from baseline) [8]: −33.9% and −45.8% and −37.1% and −27% and −32.9% and −48.7% | % sUA change (from baseline), Mean (3-8) [8]: −19.3% | Absolute sUA concentration, Mean (3-8) [8]: 5.3 mg/dL | % sUA change (from baseline) [9]: −35.7% and −45.8% and −35.5% and −29.7% and −32.9% and −46.2% | % sUA change (from baseline), Mean (3-8) [9]: −21.3% | Absolute sUA concentration, Mean (3-8) [9]: 5.1 mg/dL | % sUA change (from baseline) [10]: −23.2% and −30.5% and −16.1% and −14.9% and −15.8% and −28.2% | % sUA change (from baseline), Mean (3-8) [10]: −15.5% | Absolute sUA concentration, Mean (3-8) [10]: 5.5 mg/dL | % sUA reduction (from baseline) [11]: 0% | % sUA reduction (from baseline), Mean (3-8) [11]: 0% | Absolute sUA concentration, Mean (3-8) [11]: 6.5 mg/dL | % sUA reduction (from baseline) [12]: −24.3% and −13.9% and −14.3% and −13.1% and −27.9% and −22.0% | % sUA reduction (from baseline), Mean (3-8) [12]: −19.3% | Absolute sUA concentration, Mean (3-8) [12]: 5.3 mg/dL | % sUA reduction (from baseline) [13]: −36.5% and −16.7% and −19.0% and −13.1% and −37.7% and −32.2% | % sUA reduction (from baseline), Mean (3-8) [13]: −25.9% | Absolute sUA concentration, Mean (3-8) [13]: 4.8 mg/dL | % sUA reduction (from baseline) [14]: −25.7% and −11.1% (2×) and 0.0% and −26.2% and −16.9% | % sUA reduction (from baseline), Mean (3-8) [14]: −15.2% | Absolute sUA concentration, Mean (3-8) [14]: 5.5 mg/dL | % sUA reduction (from baseline) [15]: −29.7% and −16.7% and −17.5% and −8.2% and −36.1% and −28.8% | % sUA reduction (from baseline), Mean (3-8) [15]: −22.8% | Absolute sUA concentration, Mean (3-8) [15]: 5.0 mg/dL | % sUA reduction (from baseline) [16]: −32.4% and −23.6% and −14.3% and −14.8% and −41.0% and −32.2% | % sUA reduction (from baseline), Mean (3-8) [16]: −26.4% | Absolute sUA concentration, Mean (3-8) [16]: 4.8 mg/dL | % sUA reduction (from baseline) [17]: −27.0% and −11.1% and −9.5% and −11.5% and −31.1% and −20.3% | % sUA reduction (from baseline), Mean (3-8) [17]: −18.4% | Absolute sUA concentration, Mean (3-8) [17]: 5.3 mg/dL | % sUA reduction (from baseline) [18]: −31.1% and −18.1% and −15.9% and −16.4% and −32.8% and −28.8% | % sUA reduction (from baseline), Mean (3-8) [18]: −23.9% | Absolute sUA concentration, Mean (3-8) [18]: 5.0 mg/dL | % sUA reduction (from baseline) [19]: −28.4% and −22.2% and −20.6% and −21.3% and −32.8% and −28.8% | % sUA reduction (from baseline), Mean (3-8) [19]: −25.7% | Absolute sUA concentration, Mean (3-8) [19]: 4.8 mg/dL | % sUA reduction (from baseline) [20]: −21.6% and −15.3% and −12.7% and −13.1% and −26.2% and −23.7% | % sUA reduction (from baseline), Mean (3-8) [20]: −18.8% | Absolute sUA concentration, Mean (3-8) [20]: 5.3 mg/dL | % sUA reduction (from baseline) [21]: 0% | % sUA reduction (from baseline), Mean (3-8) [21]: 0% | Absolute sUA concentration, Mean (3-8) [21]: 6.0 mg/dL | % sUA reduction (from baseline) [22]: −36.2% and −31.8% and −25.0% and −22.8% and −30.0% | % sUA reduction (from baseline), Mean (3-8) [22]: −29.2% | Absolute sUA concentration, Mean (3-8) [22]: 4.1 mg/dL | % sUA reduction (from baseline) [23]: −40.6% and −37.9% and −29.2% and −25.0% and −22.8% | % sUA reduction (from baseline), Mean (3-8) [23]: −32.2% | Absolute sUA concentration, Mean (3-8) [23]: 4.0 mg/dL | % sUA reduction (from baseline), Mean (3-8) [24]: −17.2% | Absolute sUA concentration, Mean (3-8) [24]: 4.9 mg/dL | % sUA reduction (from baseline), Mean (3-8) [25]: −25.6% | Absolute sUA concentration, Mean (3-8) [25]: 4.4 mg/dL | % sUA reduction (from baseline), Mean (3-8) [26]: −29.1% | Absolute sUA concentration, Mean (3-8) [26]: 4.2 mg/dL | % sUA reduction (from baseline) [27]: −31.9% and −30.3% and −23.1% and −23.3% and −14.0% and −27.5% | % sUA reduction (from baseline), Mean (3-8) [27]: −25.0%
